The values that follow come from US8729047B2, “Compositions for inhibiting redox-sensitive GTPases” (Board of Regents, The University of Texas System, priority 2010, dated 2014).

For assay [1], the system named is SUM149 cells. The assay can be described thus: MTT cell viability and caspase-3/8 assays. In kind it is cell-based, human. The source says:
FIG. 25. […] (B) Caspase-3/8 assay: the apoptotic activity of sample cells treated with the apoptotic inducer was set to be 100%, and other results were then expressed as normalized values against the mean value associated with the treatment with the apoptotic inducer. For both (A) and (B), all values represent the mean values and standard error values from triplicate measurements.

For assay [2], the system named is Rho GTPases. The assay can be described thus: Binding of 6-TGDP compared with GDP (Example 2). Conditions: Example 2, FIG. 13 values. As for the experimental part: The true dissociation constant (^trueKD 6-TGDP) of Ras, RhoC, RhoA and Rac1 for 6-TGDP was then calculated to be ˜20.7 pM, 212 μM, 208 μM, and 158 μM [6-TGDP] by using a compensation equation, ^trueKD 6-TGDP=^appKD 6-TGDP/(1+[GDP]/^trueKD GDP) (95), in conjunction with the values given [(^appKD 6-TGDP of Ras, RhoC, RhoA, and Rac1=2300, 230, 224, and 245 μM (FIG. 13) and ^trueKD GDP=9 pM, 12 μM, 13 μM and 1.8 μM, respectively. The ^trueKD GDP of Ras, RhoA and Rac1 was determined previously (Lenzen et al. Biochemistry 37, 7420-7430 (1998); Heo et al. Biochemistry 44, 6573-6585 (2005)) and the ^trueKD GDP of RhoC was further determined. Example: ^trueKD 6-TGDP for Ras=2300 μM/(1+1 μM GDP/[…])=[…] [6-TGDP]].

The subject of assay [3] is Rho proteins. In words: Binding affinity of 6-TGDP compared with GDP (Example 3). Conditions: all examined Rho proteins; FIG. 16A. As to the method:
(a) A competitive binding assay was performed to determine the binding affinity of Rho GTPase and 6-TGDP. The radiolabeled [^3H]GDP-loaded Rho protein (1 μM) was titrated with various concentrations of 6-TGDP. The titrated Rho protein sample then was spotted onto a nitrocellulose membrane. Each membrane was washed three times with the assay buffer, and radioactivity was determined using a Beckman-Coulter scintillation counter. The radioactivity of the sample (Rho protein-bound [^3H]GDP) was converted into, and thus plotted, as the fraction of mol GDP per mol total Rho protein. The apparent dissociation constant (^appKD) of the Rho protein with [^3H]GDP in the presence of 6-TGDP was determined by using Prism software to fit the titration curve to a hyperbola.
The RhoC and mutant RhoC bound GDP also can be competitively displaced with 6-TGDP (FIG. 16A). The binding affinities that 6-TGDP has for all of these examined Rho proteins are ˜2-fold weaker than that of GDP for Rho proteins (FIG. 16A).

The target of assay [4] is Ras (Homo sapiens, UniProt P01112). Particulars: determined previously (Lenzen et al.; Heo et al.); read-out: trueKD GDP; cited from earlier work.
Assay [5] deals with T1, RhoA (Homo sapiens, UniProt P61586).
T1 construct: made in house; host or cells: E. coli
Conditions: determined previously; read-out: trueKD GDP; cited from earlier work.

Assay [6] concerns the target T1, RhoA. Conditions: known value (Morgan et al.); read-out: trueKD for GDP; cited from earlier work.

Where two headings read alike, the source gives them in different places.

T1 sequence (P61586 whole entry, species assumed): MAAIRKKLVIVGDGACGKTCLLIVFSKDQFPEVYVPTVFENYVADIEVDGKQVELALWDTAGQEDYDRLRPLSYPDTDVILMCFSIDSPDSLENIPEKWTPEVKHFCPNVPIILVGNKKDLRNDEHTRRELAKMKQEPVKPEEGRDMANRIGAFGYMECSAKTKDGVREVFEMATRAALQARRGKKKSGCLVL
Sequence of Ras (P01112 whole entry): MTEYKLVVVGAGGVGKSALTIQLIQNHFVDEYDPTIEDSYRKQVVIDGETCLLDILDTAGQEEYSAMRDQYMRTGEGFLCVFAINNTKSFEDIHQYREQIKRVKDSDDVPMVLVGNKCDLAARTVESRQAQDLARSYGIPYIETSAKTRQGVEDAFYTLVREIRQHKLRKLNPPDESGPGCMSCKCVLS

Regarding `Nc1nc2nc[nH]c2c(=S)[nH]1` [6-TG, 6-thioguanine], the “apoptotic effect (caspase, FIG. 25B)” value in assay [1] (6-TG) is listed as “minimal”. The “viability and caspase activity” value in assay [1] (6-TG and DETA/NO, FIG. 25) is “minimally affected”. Besides, the “cell viability (MTT, FIG. 25A)” value in assay [1] (6-TG for 3 days) is listed as “minimally affected”.

As for `Nc1nc2c(ncn2[C@@H]2O[C@H](COP(=O)(O)OP(=O)(O)O)[C@@H](O)[C@H]2O)c(=S)[nH]1` [6-TGDP, 6-thioguanosine diphosphate], the “binding interaction with 6-TGDP weaker than with GDP” value in assay [2] is recorded as roughly 15 fold. Besides, the “binding affinity of 6-TGDP weaker than that of GDP” value in assay [3] is roughly 2 fold.

As to `Nc1nc2c(ncn2[C@@H]2O[C@H](COP(=O)(O)OP(=O)(O)O)[C@@H](O)[C@H]2O)c(=O)[nH]1` [GDP], the Kd in assay [4] is 9 pM; in assay [5] it was 13 µM; in assay [6], 13 µM.
